Several values for one entry are separate records, joined by “and”; a condition that tells them apart may be missing. Equal entries are not always repeated.
Tested on: K98450-129-R-PDC multicell spheroids, viability
Assay: Anticancer human tumor K98450-129-R-PDC patient-derived colon adenocarcinoma cell line growth inhibition [PI3K]
Settings: for viability, T/C: stronger effect = lower value
Source text: Combinatorial screen of targeted agents with the PI3K inhibitors inavolisib, alpelisib, duvelisib, and copanlisib in multi-cell type tumor spheroids
A high-throughput screen of multi-cell type tumor spheroids was designed to identify active combinations of targeted small molecules and PI3K pathway inhibitors. Complex spheroids include a stromal component modeled by human endothelial cells (HUVEC) and fibroblasts modeled by human mesenchymal stem cells (MSCs). The concentration ranges selected for each drug and investigational agent were based upon clinically achievable concentrations if the clinical Cmax of the agent was known.
Compounds. The drugs and investigational agents: inavolisib (NSC800729), alpelisib (NSC765974), duvelisib (NSC772469), copanlisib (NSC816437), ipatasertib (NSC767898), afuresertib (NSC778305), talazoparib (NSC767125), sapanisertib (NSC764658), selumetinib (NSC741078), tovorafenib (DAY101, NSC766906), vemurafenib (NSC761431), ravoxertinib (NSC781343), sotorasib (NSC818433), MRTX1133 (NSC 836407), abemaciclib (NSC 768073), palbociclib (NSC758247), venetoclax (NSC 766270), SY5609 (NSC837396), enzalutamide (NSC755605), and darolutamide (NSC825331), were obtained from the National Cancer Institute (NCI) Developmental Therapeutics Program Chemical Repository. The FDA-approved anticancer drug set is available from the NCI Developmental Therapeutics Program. […] The stock solutions were prepared in dimethyl sulfoxide (DMSO, Sigma-Aldrich, St. Louis, MO, cat. D2650) at 800-fold the tested concentration and stored at -70 degrees C prior to their use. All drugs and investigational agents were tested over a range starting from a high concentration at or near the clinical Cmax and decreasing in half-log increments. If the clinical Cmax for an agent had not been determined, the highest concentration tested was 10 microM.
Cell Culture. All cells were maintained in an incubator at 37 degrees C and 5% CO2 with 95% humidity. The PDC lines were cultured according to standard operating procedures established by the NCI PDMR (https://pdmr.cancer.gov/sops/default.htm). All PDCs were thawed and cultured in Matrigel-coated flasks prepared with a working solution of 1X Ham's F-12 nutrient mix, without supplementation (Invitrogen, Waltham, MA, cat. 11765054), 100 U/mL penicillin-streptomycin (Invitrogen, cat. 15140122), and 2.5% Matrigel (Corning Inc., Corning, NY, cat. 354248) for the first three passages. The 354836-022-R-J1-PDC, 475296-252-R-J1-PDC, and 997726-040-R-J2-PDC lines were cultured in 6A media, which includes advanced DMEM/F-12 (Thermo Fisher Scientific, cat. 12634028), 10 mM HEPES (Thermo Fisher Scientific, cat. 15630080), 1X GlutaMAX supplement (Thermo Fisher Scientific, cat. 35050061), 0.1 mg/mL primocin (InvivoGen, San Diego, CA, cat. ant-pm-2), 10% defined fetal bovine serum, heat inactivated (HyClone Laboratories Inc., Logan, UT, cat. SH30070.03HI), 50% L-WRN conditioned media (ATCC, cat. CRL-3276), 1.25 mM N-Acetyl-L-cysteine (Sigma-Aldrich, cat. A9165), 10 mM nicotinamide (Sigma-Aldrich, cat. N0636), 1X B-27 supplement (Thermo Fisher Scientific, cat. 17504044), 1X N-2 supplement (Thermo Fisher Scientific, cat. 17502048), and 10 microM Y-27632 dihydrochloride (Tocris Bioscience, Bristol, United Kingdom, cat. 1254). The 624824-186-R-J2-PDC line was cultured in 6C/Colon 1B media, which includes all 6A media components plus 50 ng/mL human EGF recombinant protein (Thermo Fisher Scientific, cat. PHG0311). […]

[1] = compound alone, run of 04/24/2023
[2] = compound alone, run of 04/25/2023
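Also: spheroids exposed to agents for seven days before read-out.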

Row | SMILES | viability, T/C (compound 0.0316 µM) | viability, T/C (compound 0.1 µM) | viability, T/C (compound 0.316 µM) | viability, T/C (compound 3.16 µM) | viability, T/C (compound 0.00316 µM) | IC50 (curve of compound) | viability, T/C (compound 1 µM) | viability, T/C (compound 10 µM) | other results
1 | C=CC(=O)N1CCN(c2nc(=O)n(-c3c(C)ccnc3C(C)C)c3nc(-c4c(O)cccc4F)c(F)cc23)C(C)C1 (configuration not stated) | 104% [middle of 4 runs] | 98.4% [middle of 4 runs] | 102% [middle of 4 runs] | 56% [middle of 4 runs] | – | – | – | – | –
2 | CC(=O)c1c(C)c2cnc(Nc3ccc(N4CCNCC4)cn3)nc2n(C2CCCC2)c1=O | 101% [middle of 4 runs] | 95.5% [middle of 4 runs] | – | – | 104% [middle of 4 runs] | > 0.1 µM | – | – | viability, T/C (compound 0.000316 µM): 105% [middle of 4 runs]; viability, T/C (compound 0.001 µM): 106% [middle of 4 runs]; viability, T/C (compound 0.01 µM): 104% (2×) and 102% and 99.6%
3 | CC(C)NCC(C(=O)N1CCN(c2ncnc3c2C(C)CC3O)CC1)c1ccc(Cl)cc1 (configuration not stated) | 94.2% and 100% and 107% (2×) | 100% (2×) and 93.4% and 105% | 105% [middle of 4 runs] | 93% [middle of 4 runs] | – | > 10 µM | 106% (2×) and 92.7% and 87.9% | 99.5% and 102% (2×) and 99.9% | –
4 | CC(C)n1nc(-c2ccc3oc(N)nc3c2)c2c(N)ncnc21 | 95.5% [middle of 4 runs] | 78.2% [middle of 4 runs] | – | – | 99.9% [middle of 4 runs] | > 0.1 µM | – | – | viability, T/C (compound 0.000316 µM): 103% [middle of 4 runs]; viability, T/C (compound 0.001 µM): 104% [middle of 4 runs]; viability, T/C (compound 0.01 µM): 98.2% [middle of 4 runs]
5 | CC(Cn1ccc(-c2ccc(C#N)c(Cl)c2)n1)NC(=O)c1cc(C(C)O)[nH]n1 (configuration not stated) | 92.4% and 103% (2×) and 102% | 107% [middle of 4 runs] | 102% [middle of 4 runs] | 108% and 104% (2×) and 96.2% | – | > 10 µM | 95.1% and 107% (2×) and 91.3% | 104% [middle of 4 runs] | –
6 | CC(Nc1ccc2c(c1)OCCn1cc(N3C(=O)OCC3C(F)F)nc1-2)C(N)=O (configuration not stated) | 106% [middle of 8 runs] | 105% [middle of 8 runs] | 105% [middle of 8 runs] | – | 107% [middle of 8 runs] | – | 92.3% [middle of 8 runs] | – | viability, T/C (compound 0.01 µM): 106% [middle of 8 runs]; IC50 [1]: > 1 µM
7 | CC(Nc1ncnc2nc[nH]c12)c1cc2cccc(Cl)c2c(=O)n1-c1ccccc1 (configuration not stated) | 105% [middle of 8 runs] | 98.9% [middle of 8 runs] | 103% [middle of 8 runs] | 105% [middle of 8 runs] | – | – | 99.9% [middle of 8 runs] | 97.6% [middle of 8 runs] | IC50 [2]: > 10 µM
8 | CC1(C)CCC(CN2CCN(c3ccc(C(=O)NS(=O)(=O)c4ccc(NCC5CCOCC5)c([N+](=O)[O-])c4)c(Oc4cnc5[nH]ccc5c4)c3)CC2)=C(c2ccc(Cl)cc2)C1 | 105% [middle of 4 runs] | 106% and 102% (2×) and 85.6% | 107% [middle of 4 runs] | 94.5% [middle of 4 runs] | – | – | 104% [middle of 4 runs] | – | –
9 | CC1(C)CCC(Nc2ncc(C(F)(F)F)c(-c3c[nH]c4c(P(C)(C)=O)c(C#N)ccc34)n2)CN1 (configuration not stated) | 107% and 114% (2×) and 124% | 99% [middle of 4 runs] | 88.8% [middle of 4 runs] | 66.8% [middle of 4 runs] | – | 8.62 µM and > 10 µM and 9.21 µM | 70.6% [middle of 4 runs] | 63.4% [middle of 4 runs] | –
10 | CCCS(=O)(=O)Nc1ccc(F)c(C(=O)c2c[nH]c3ncc(-c4ccc(Cl)cc4)cc23)c1F | 104% [middle of 4 runs] | – | 116% [middle of 4 runs] | – | – | 6.15 µM [middle of 4 runs] | – | 7.9% [middle of 4 runs] | –
11 | CCN1CCN(Cc2ccc(Nc3ncc(F)c(-c4cc(F)c5nc(C)n(C(C)C)c5c4)n3)nc2)CC1 | 106% and 101% (2×) and 97% | 94.1% [middle of 4 runs] | 86.5% [middle of 4 runs] | – | 108% [middle of 4 runs] | > 1 µM | 87.5% [middle of 4 runs] | – | viability, T/C (compound 0.01 µM): 99.3% [middle of 4 runs]
12 | CNC(=O)c1ccc(N2C(=S)N(c3ccc(C#N)c(C(F)(F)F)c3)C(=O)C2(C)C)cc1F | 105% (2×) and 88.4% and 94.7% | 104% (2×) and 91.1% and 96.9% | 102% (2×) and 88.4% and 109% | 107% [middle of 4 runs] | – | > 10 µM | 102% [middle of 4 runs] | 113% and 111% (2×) and 90% | –
13 | COc1c(OCCCN2CCOCC2)ccc2c3n(c(=NC(=O)c4cnc(N)nc4)nc12)CCN3 | 97.6% [middle of 8 runs] | 77.9% [middle of 8 runs] | 65.8% [middle of 8 runs] | – | 97.8% [middle of 8 runs] | – | 54.2% [middle of 8 runs] | – | viability, T/C (compound 0.01 µM): 101% [middle of 8 runs]; IC50 [2]: > 1 µM
14 | C[C@@H](NC(=O)c1ncnc(N)c1Cl)c1ncc(C(=O)Nc2cc(C(F)(F)F)c(Cl)cn2)s1 | 108% [middle of 4 runs] | 110% [middle of 4 runs] | 119% [middle of 4 runs] | 120% [middle of 4 runs] | – | > 10 µM | 122% [middle of 4 runs] | 109% [middle of 4 runs] | –
15 | Cc1nc(NC(=O)N2CCCC2C(N)=O)sc1-c1ccnc(C(C)(C)C(F)(F)F)c1 (configuration not stated) | 104% [middle of 8 runs] | 103% [middle of 8 runs] | 102% [middle of 8 runs] | 93.5% [middle of 8 runs] | – | – | 99.1% [middle of 8 runs] | 75.9% [middle of 8 runs] | IC50 [1]: > 10 µM
16 | Cn1cnc2c(F)c(Nc3ccc(Br)cc3Cl)c(C(=O)NOCCO)cc21 | – | – | – | – | – | 1.07 µM [middle of 4 runs] | – | – | viability, T/C (compound 0.00949 µM): 92.8% [middle of 4 runs]; viability, T/C (compound 0.03 µM): 89.9% [middle of 4 runs]; viability, T/C (compound 0.0949 µM): 93.2% [middle of 4 runs]; viability, T/C (compound 0.3 µM): 83% [middle of 4 runs]; viability, T/C (compound 0.949 µM): 52.5% [middle of 4 runs]; viability, T/C (compound 3 µM): 22% [middle of 4 runs]
17 | Cn1nccc1Nc1nccc(-c2ccn(C(CO)c3ccc(Cl)c(F)c3)c(=O)c2)n1 (configuration not stated) | 105% (2×) and 95% and 106% | 101% (2×) and 104% and 81.8% | 103% [middle of 4 runs] | 100% [middle of 4 runs] | – | > 10 µM | 101% [middle of 4 runs] | 94% [middle of 4 runs] | –
18 | Cn1ncnc1[C@H]1c2n[nH]c(=O)c3cc(F)cc(c23)N[C@@H]1c1ccc(F)cc1 | 104% [middle of 4 runs] | 95.2% [middle of 4 runs] | – | – | 103% [middle of 4 runs] | > 0.1 µM | – | – | viability, T/C (compound 0.000316 µM): 104% [middle of 4 runs]; viability, T/C (compound 0.001 µM): 95% [middle of 4 runs]

— PubChem BioAssay AID1963961 (Molecular Pharmacology Branch, DTP, NCI, 2024)
